# Results as given in patent US20160272645A1, “Heterocyclic Compounds and Methods of Use” (MEDIVATION TECHNOLOGIES, INC., priority 2013, published 2016).
# What was measured:
# Format in all cases: biochemical
# PI3Kγ = target: T1, PI3Kγ (Homo sapiens, UniProt P48736); assay: PI3K isoform profiling, PI3Kγ (PI3Kδ protocol); settings: for inhibition at 0.3 µM: compound 0.3 μM, read-out: PI3Kγ @ 0.3 μM (% Inh); for IC50: 10 dose IC50
# T1 construct: purchased Reaction Biology Corporation
# From the text: (§1) PI3Kδ assay: The PIP3 product is detected by displacement of biotin-PIP3 from an energy transfer complex consisting of Europium labeled anti-GST monoclonal antibody, a GST-tagged pleckstrin homology (PH) domain, biotinylated PIP3 and Streptavidin-Allophycocyanin (APC). Excitation of Europium in the complex results in an energy transfer to the APC and a fluorescent emission at 665 nm. The PIP3 product formed by PI3-Kinase (h) activity displaces biotin-PIP3 from the complex resulting in a loss of energy transfer and thus a decrease in signal. This is a 3-step reaction: First, the kinase reaction with PIP2 substrate is carried out in the presence of ATP (10 μM), and the reaction is quenched with stop Solution, and then finally detect by adding Detection Mixture followed by incubation (10 min). Reaction procedure: 1) Prepare substrate in freshly prepared Reaction Buffer. 2) Deliver kinase into the substrate solution and gently mix. 3) Deliver compounds in 100% DMSO (1 μM) into the kinase reaction mixture by Acoustic technology (Echo550; nanoliter range), incubate for 10 min at RT. 4) Deliver ATP into the reaction mixture to initiate the reaction. 5) Incubate for 30 min at 30° C. 6) Quench the reaction with Stop Solution. 7) Add Detection Mixture, and incubate for overnight. 8) Measure HTRF: Ex=320 nm, ratio of Em=615 nm and Em=665 nm. The emission ratio is converted into μM PIP3 production based on PIP3 standard curves. The nonlinear regression to obtain the standard curve and IC50 values are performed using Graphpad Prism software. Assay Buffer: HEPES 50 mM (pH7.0), NaN3 0.02%, BSA 0.01%, Orthovanadate 0.1 mM, 1% DMSO. Detection buffer: HEPES 10 mM (pH7.0), BSA 0.02%, KF 0.16 M, EDTA 4 mM. Substrate: 10 μM PIP2 substrate (PI(4,5)P2).
# Compounds of the invention were profiled in a 10 dose IC50 panel against PI3Kα, PI3Kβ, and PI3Kγ kinases, provided by Reaction Biology Corporation, applied to the PI3Kδ protocol provided in Example B1.
# TEC = target: T2, TEC (Homo sapiens, UniProt P42680); assay: TEC kinase profiling (BTK protocol); settings: compound 0.3 μM; read-out: TEC @ 0.3 μM (% Inh)
# T2 construct: purchased Reaction Biology Corporation
# T2 sequence (P42680 1-631): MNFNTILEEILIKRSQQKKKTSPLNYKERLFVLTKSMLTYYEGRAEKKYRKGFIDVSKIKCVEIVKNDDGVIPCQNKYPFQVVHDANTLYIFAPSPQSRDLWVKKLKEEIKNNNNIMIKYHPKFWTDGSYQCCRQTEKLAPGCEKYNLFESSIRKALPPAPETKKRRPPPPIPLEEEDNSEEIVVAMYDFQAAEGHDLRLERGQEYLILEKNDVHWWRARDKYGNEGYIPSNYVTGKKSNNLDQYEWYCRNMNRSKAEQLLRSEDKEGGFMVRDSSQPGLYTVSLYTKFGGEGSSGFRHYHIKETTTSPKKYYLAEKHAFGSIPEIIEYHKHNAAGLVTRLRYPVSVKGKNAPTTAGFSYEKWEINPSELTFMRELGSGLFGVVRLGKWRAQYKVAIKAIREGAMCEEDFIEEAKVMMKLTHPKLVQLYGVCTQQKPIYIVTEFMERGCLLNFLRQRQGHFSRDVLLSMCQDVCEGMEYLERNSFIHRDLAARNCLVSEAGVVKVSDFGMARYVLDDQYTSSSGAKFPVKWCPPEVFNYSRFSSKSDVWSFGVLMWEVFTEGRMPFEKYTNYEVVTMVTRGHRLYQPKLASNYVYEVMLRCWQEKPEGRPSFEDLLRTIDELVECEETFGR
# Procedure: BTK assay: In vitro profiling protein kinases was performed using the “HotSpot” assay platform. Briefly, specific kinase/substrate pairs along with required cofactors were prepared in reaction buffer. Compounds were prepared as 10 mM stock solutions in DMSO. Compounds were delivered into the reaction, followed 15-20 minutes later by addition of a mixture of ATP (Sigma, St. Louis Mo.) and ^33P ATP (Perkin Elmer, Waltham Mass.) to a final concentration of 10 μM. Reactions were carried out at RT for 120 min, followed by spotting of the reactions onto P81 ion exchange filter paper (Whatman Inc., Piscataway, N.J.). Unbound phosphate was removed by extensive washing of filters in 0.75% Phosphoric acid. […] ICso values and curve fits were obtained using Prism (GraphPad Software). Buffer Conditions: 20 mM Hepes (pH 7.5), 10 mM MgCl2, 1 mM EGTA, 0.02% Brij35, 0.02 mg/mL BSA, 0.1 mM Na3VO4, 2 mM DTT, 1% DMSO.
# Compounds of the invention were profiled in a 10 dose IC50 panel against BMX/ETK, ITK and TEC kinases, provided by Reaction Biology Corporation, applied to the BTK protocol provided in Example B1.
# PI3Kδ [1] = target: T3, PI3Kδ (Homo sapiens, UniProt O00329); assay: PI3Kδ kinase profiling, HTRF PIP3 displacement assay (Reaction Biology); settings: for inhibition at 1 µM: compound 1 μM, ATP 10 μM, read-out: PI3Kδ @ 1 μM (% Inh)
# T3 construct: purchased Reaction Biology Corporation
# From the text: Compounds of the invention were profiled in a 10 dose IC50 panel against BTK and PI3Kδ, both provided by Reaction Biology Corporation.
# as §1
# PI3Kδ [2] = target: T3, PI3Kδ; assay: as above; settings: ATP 10 μM; for inhibition at 0.1 µM: compound 0.1 μM, read-out: PI3Kδ @ 0.1 μM (% Inh); for inhibition at 0.01 µM: compound 0.01 μM, read-out: PI3Kδ @ 0.01 μM (% Inh)
# T1 sequence (P48736 whole entry, canonical isoform): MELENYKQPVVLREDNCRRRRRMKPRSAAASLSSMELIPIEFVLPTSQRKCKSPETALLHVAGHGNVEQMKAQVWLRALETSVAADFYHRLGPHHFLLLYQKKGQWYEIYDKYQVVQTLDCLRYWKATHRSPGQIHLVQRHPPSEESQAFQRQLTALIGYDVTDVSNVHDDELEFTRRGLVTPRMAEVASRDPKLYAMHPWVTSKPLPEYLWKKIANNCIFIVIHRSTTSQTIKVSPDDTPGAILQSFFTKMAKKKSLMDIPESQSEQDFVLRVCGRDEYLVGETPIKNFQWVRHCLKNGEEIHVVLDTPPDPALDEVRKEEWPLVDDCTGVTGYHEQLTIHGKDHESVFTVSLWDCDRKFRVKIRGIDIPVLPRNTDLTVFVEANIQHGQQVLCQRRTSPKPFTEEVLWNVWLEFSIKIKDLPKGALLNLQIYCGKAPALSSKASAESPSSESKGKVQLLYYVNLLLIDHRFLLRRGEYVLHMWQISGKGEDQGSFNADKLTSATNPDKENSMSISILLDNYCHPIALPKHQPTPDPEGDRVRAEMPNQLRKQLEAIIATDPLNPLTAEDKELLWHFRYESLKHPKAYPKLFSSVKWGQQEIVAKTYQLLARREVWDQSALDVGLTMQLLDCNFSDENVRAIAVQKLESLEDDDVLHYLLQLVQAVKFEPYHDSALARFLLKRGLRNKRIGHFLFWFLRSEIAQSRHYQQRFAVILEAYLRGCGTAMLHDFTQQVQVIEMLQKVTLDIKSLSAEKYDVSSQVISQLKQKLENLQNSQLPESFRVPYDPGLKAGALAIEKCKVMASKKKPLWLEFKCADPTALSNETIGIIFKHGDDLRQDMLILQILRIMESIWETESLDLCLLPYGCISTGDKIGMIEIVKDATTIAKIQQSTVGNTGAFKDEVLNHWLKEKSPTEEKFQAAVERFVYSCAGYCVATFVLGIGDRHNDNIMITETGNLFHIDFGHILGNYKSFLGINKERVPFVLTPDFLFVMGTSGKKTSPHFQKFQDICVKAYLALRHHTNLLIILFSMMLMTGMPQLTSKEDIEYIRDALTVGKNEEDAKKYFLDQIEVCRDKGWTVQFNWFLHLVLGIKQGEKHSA
# T3 sequence (O00329 whole entry): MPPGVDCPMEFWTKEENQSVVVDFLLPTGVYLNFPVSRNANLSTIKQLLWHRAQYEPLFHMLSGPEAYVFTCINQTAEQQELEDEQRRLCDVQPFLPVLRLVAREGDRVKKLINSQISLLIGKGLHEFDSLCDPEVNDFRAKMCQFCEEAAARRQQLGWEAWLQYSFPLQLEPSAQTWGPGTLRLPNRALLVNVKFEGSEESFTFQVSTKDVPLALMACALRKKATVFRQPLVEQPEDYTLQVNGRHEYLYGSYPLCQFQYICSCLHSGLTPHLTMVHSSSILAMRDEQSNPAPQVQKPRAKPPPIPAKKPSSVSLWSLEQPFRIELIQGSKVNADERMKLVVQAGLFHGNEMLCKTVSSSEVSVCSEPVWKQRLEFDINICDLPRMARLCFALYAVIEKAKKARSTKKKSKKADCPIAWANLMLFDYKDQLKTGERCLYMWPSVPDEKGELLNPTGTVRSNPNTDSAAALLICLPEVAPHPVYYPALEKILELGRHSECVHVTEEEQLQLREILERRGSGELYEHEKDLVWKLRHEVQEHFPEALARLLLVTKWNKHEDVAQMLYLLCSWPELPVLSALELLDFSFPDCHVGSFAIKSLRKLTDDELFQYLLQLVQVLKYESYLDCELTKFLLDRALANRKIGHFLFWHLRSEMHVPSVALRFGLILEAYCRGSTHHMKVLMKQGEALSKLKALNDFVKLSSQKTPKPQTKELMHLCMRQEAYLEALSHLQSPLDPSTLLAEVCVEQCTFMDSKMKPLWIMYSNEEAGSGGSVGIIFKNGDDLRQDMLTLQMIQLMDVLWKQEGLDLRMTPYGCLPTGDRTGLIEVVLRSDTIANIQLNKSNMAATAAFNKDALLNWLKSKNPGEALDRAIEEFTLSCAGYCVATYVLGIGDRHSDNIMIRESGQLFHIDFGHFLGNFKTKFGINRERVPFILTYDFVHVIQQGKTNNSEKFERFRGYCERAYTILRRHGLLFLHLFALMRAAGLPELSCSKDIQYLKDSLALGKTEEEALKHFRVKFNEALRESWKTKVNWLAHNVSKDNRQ
# T3 sequence (P27986 whole entry partner): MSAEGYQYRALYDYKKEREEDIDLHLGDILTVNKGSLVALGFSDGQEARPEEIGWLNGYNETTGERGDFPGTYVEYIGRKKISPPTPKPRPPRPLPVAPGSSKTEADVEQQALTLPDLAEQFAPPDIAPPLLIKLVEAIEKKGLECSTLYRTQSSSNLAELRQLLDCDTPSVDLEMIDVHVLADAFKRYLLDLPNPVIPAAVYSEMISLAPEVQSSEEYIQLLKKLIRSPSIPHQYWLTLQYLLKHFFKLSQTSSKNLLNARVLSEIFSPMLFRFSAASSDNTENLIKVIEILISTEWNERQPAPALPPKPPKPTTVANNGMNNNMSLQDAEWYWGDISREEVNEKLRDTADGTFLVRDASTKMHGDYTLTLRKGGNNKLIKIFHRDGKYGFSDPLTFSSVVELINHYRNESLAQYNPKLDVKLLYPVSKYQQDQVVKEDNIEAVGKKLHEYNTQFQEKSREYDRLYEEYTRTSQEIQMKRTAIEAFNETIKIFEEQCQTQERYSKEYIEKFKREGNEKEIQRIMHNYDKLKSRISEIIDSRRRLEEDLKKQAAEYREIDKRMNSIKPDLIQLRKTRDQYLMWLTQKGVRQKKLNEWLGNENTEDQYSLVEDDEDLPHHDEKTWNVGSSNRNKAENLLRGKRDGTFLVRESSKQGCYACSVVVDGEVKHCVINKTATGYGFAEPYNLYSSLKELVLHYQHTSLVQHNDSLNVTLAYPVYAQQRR
SMILES,inhibition at 0.3 µM (PI3Kγ),inhibition at 0.3 µM (TEC),IC50 (PI3Kδ [1]),inhibition at 1 µM (PI3Kδ [1]),inhibition at 0.1 µM (PI3Kδ [2]),inhibition at 0.01 µM (PI3Kδ [2]),IC50 (PI3Kγ)
"C=CC(=O)N(CCn1nc(-c2cc(O)cc(F)c2)c2c(N)ncnc21)Cc1ccc(F)cc1 [Compound 10, N-{2-[4-amino-3-(3-fluoro-5-hydroxyphenyl)-1H-pyrazolo [3,4-d]pyrimidin-1-yl]ethyl}-N-[(4-fluorophenyl)methyl]prop-2-enamide]",-3.88%,66.1%,12.8 nM,89%,67.2%,,
"C=CC(=O)N(CCn1nc(-c2cc(O)cc(F)c2)c2c(N)ncnc21)Cc1ccccc1 [Compound 5, N-(2-(4-amino-3-(3-fluoro-5-hydroxyphenyl)-1H-pyrazolo[3,4-d]pyrimidin-1-yl)ethyl)-N-benzylacrylamide]",34.9%,48.8%,13 nM,,70.3%,,10500 nM
"C=CC(=O)N(CCn1nc(-c2cc(O)cc(F)c2)c2c(N)ncnc21)c1ccccc1 [Compound 2, N-(2-(4-amino-3-(3-fluoro-5-hydroxyphenyl)-1H-pyrazolo[3,4-d]pyrimidin-1-yl)ethyl)-N-phenylacrylamide]",-2.49%,72.6%,51.6 nM,,39.1%,,9070 nM
"C=CC(=O)N(CCn1nc(-c2cc(O)cc(F)c2)c2c(N)ncnc21)Cc1ccccc1F [Compound 11, N-[2-[4-amino-3-(3-fluoro-5-hydroxy-phenyl)pyrazolo[3,4-d]pyrimidin-1-yl]ethyl]-N-[(2-fluorophenyl)methyl]prop-2-enamide]",21.4%,68.7%,32 nM,82.4%,54.2%,,

# The next compounds have a lower IC50 (PI3Kδ [1]) than those just listed; values first:
inhibition at 0.3 µM (PI3Kγ),inhibition at 0.3 µM (TEC),IC50 (PI3Kδ [1]),inhibition at 1 µM (PI3Kδ [1]),inhibition at 0.1 µM (PI3Kδ [2]),inhibition at 0.01 µM (PI3Kδ [2]),IC50 (PI3Kγ),SMILES
14.6%,75%,12.4 nM,,73%,48.3%,,"C=CC(=O)N(CCn1nc(-c2cc(O)c(F)c(F)c2)c2c(N)ncnc21)Cc1ccc(Cl)cc1 [Compound 16, N-{2-[4-amino-3-(3,4-difluoro-5-hydroxyphenyl)-1H-pyrazolo[3,4-d]pyrimidin-1-yl]ethyl}-N-[(4-chlorophenyl)methyl]prop-2-enamide]"
49.7%,-1.13%,10 nM,,,,,"Nc1ncnc2c1c(-c1cc(O)cc(F)c1)nn2CCNc1ccccc1 [Compound 1, 3-(4-amino-1-(2-(phenylamino)ethyl)-1H-pyrazolo [3,4-d]pyrimidin-3-yl)-5-fluorophenol]"
21.5%,71.6%,9.7 nM,,66.7%,37.7%,,"C=CC(=O)N(CCn1nc(-c2cc(O)cc(F)c2)c2c(N)ncnc21)Cc1ccc(Cl)cc1 [Compound 12, N-{2-[4-amino-3-(3-fluoro-5-hydroxyphenyl)-1H-pyrazolo[3,4-d]pyrimidin-1-yl]ethyl}-N-[(4-chlorophenyl)methyl]prop-2-enamide]"
